The source of these data is US10981932B2, “Macrocyclic indole derivatives” (Bayer Aktiengesellschaft, priority 2016, dated 2021).

In one data set the target is MCL-1 (Homo sapiens, UniProt Q07820). As to the kind of experiment: Protein-protein interaction assay MCL-1/Noxa BH3 peptide (MCL-1 assay), TR-FRET. The settings on record: MBP-MCL-1 / Noxa BH3-derived peptide, median. Format: binding. The essentials:
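MBP-MCL-1 (1 nM final) was preincubated 10 min at 22 °C with compounds (11 concentrations, 0.1 nM–20 μM, duplicates) in Tris pH 7 buffer with NaCl, KF, Tween-20, DTT and BGG. After 1 h at 22 °C in the dark plus overnight at 4 °C, anti-MBP Eu-cryptate/streptavidin-XL665 TR-FRET was read; IC50 came from a 4-parameter fit.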
In general terms: TR-FRET usually uses a lanthanide donor and a delayed reading to cut background.

For data set [1], the system named is SUDHL5. As to the kind of experiment: Induction of caspase-3/7 activity (Caspase-Glo 3/7), SUDHL5. Format: cell-based. The following applies: caspase-3/7 induction, SUDHL5 cells, 3 h treatment, median. In a few lines: (§1)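 Caspase-Glo 3/7 luminescence measured after 3 h compound exposure at 37 °C in SUDHL10 and SUDHL5 cells. EC50 values come from background-corrected signals, with curve bottom set to 1 and plateau set to maximal induction by the reference compound.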

For data set [2], the system named is SUDHL10. The experiment in a line: Induction of caspase-3/7 activity (Caspase-Glo 3/7), SUDHL10. Format: cell-based. The following applies: caspase-3/7 induction, SUDHL10 cells, 3 h treatment, median. The essentials:
as §1

In data set [3] the test system is SUDHL5. The experiment in a line: Anti-proliferative effect (CellTiter-Glo, 72 h), SUDHL5. Format: cell-based. The following applies: SUDHL5 cells, antiproliferation, median, read-out: Antiproli SUDHL5 [M] (median). The essentials:
(§2)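 CellTiter-Glo luminescence readout of viability, taken on a time-zero plate at day 0 and on treated plates after 72 h incubation at 37 °C in a humidified incubator. Reagent incubation 10 min before reading.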
A general note: ATP-based viability assays read luminescence as a measure of living cells.

For data set [4], the system named is SUDHL10. As to the kind of experiment: Anti-proliferative effect (CellTiter-Glo, 72 h), SUDHL10. Format: cell-based. The following applies: SUDHL10 cells, antiproliferation, median, read-out: Antiproli SUDHL10 [M] (median). The essentials:
as §2

The next data set relates to OPM2. As to the kind of experiment: Anti-proliferative effect (CellTiter-Glo, 72 h), OPM2. The settings on record: OPM2 cells, median, read-out: IC50 antiproliferation assay OPM2 [M] (median). Format: cell-based. In a few lines:
as §2

In the next data set the test system is A2780. As to the kind of experiment: Anti-proliferative effect (CellTiter-Glo, 72 h), A2780. Format: cell-based. The settings on record: A2780 cells, median, read-out: IC50 antiproliferation assay A2780 [M] (median). The essentials: as §2
The test system of another data set is MV-4-11. The experiment in a line: Anti-proliferative effect (CellTiter-Glo, 72 h), MV-4-11. Format: cell-based. The following applies: median, read-out: IC50 antiproliferation assay MV-4-11 [M] (median). The essentials:
as §2

Data set [5] concerns SUDHL5. As to the kind of experiment: Induction of cytotoxicity (CellTiter-Glo, 5 h), SUDHL5.
Data set [6] relates to SUDHL10. The experiment in a line: Induction of cytotoxicity (CellTiter-Glo, 5 h), SUDHL10.
[7] abbreviates: Homo sapiens, SU-DHL-5, 72 h, 72 h incubation.
[8] abbreviates: Homo sapiens, SU-DHL10, 72 h, 72 h incubation.
The mark [9] stands for this setting: Homo sapiens, MV4-11, 72 h, MV-4-11 cells.
The mark [10] stands for this setting: Homo sapiens, SU-DHL-5, 5 h, read-out: Cytotox SUDHL5 [M] (median), SUDHL5 cells, cytotoxicity induction, CellTiter-Glo, 5 h incubation, median.
Setting [11] is: Homo sapiens, SU-DHL10, 5 h, read-out: Cytotox SUDHL10 [M] (median), SUDHL10 cells, cytotoxicity induction, CellTiter-Glo, 5 h incubation, median.
Setting [12] is: read-out: Cytotox SUDHL5 [M] (median), SUDHL5 cells, cytotoxicity induction, CellTiter-Glo, 5 h incubation, median.
The mark [13] stands for this setting: read-out: Cytotox SUDHL10 [M] (median), SUDHL10 cells, cytotoxicity induction, CellTiter-Glo, 5 h incubation, median.
The mark [14] stands for this setting: read-out: Cytotox SUDHL5 [M] (median), SUDHL5 cells, cytotoxicity induction, CellTiter-Glo, 5 h, median.
The mark [15] stands for this setting: read-out: Cytotox SUDHL10 [M] (median), SUDHL10 cells, cytotoxicity induction, CellTiter-Glo, 5 h, median.

Molecules are shown by their SMILES. Where a name gives a salt, the structure may show the parent alone. Read-outs that look alike come from different tables or passages of the source.

Chain of MCL-1 (Q07820 whole entry): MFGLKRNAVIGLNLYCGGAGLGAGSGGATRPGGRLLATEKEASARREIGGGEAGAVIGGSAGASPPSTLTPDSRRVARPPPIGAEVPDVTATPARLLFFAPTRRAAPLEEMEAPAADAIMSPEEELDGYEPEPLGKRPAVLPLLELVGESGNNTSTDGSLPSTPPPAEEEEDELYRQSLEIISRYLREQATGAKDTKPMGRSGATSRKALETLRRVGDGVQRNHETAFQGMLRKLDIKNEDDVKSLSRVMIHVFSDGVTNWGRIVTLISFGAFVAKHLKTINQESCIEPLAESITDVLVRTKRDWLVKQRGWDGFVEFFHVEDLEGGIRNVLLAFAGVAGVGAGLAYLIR

Regarding `Cn1nc(COc2ccc(N3CCN(S(C)(=O)=O)CC3)cc2)c2c1COCCCCn1c(C(=O)O)c(CCCOc3cccc4ccccc34)c3cccc-2c31` (racemic) [Example 1-8, (rac)-1-methyl-3-({4-[4-(methylsulfonyl)piperazin-1-yl]phenoxy}methyl)-7-[3-(naphthalen-1-yloxy)propyl]-1,10,11,12,13,15-hexahydropyrazolo[4′,3′:9,10][1,6]oxazacycloundecino[8,7,6-hi]indole-8-carboxylic Acid], the IC50 against MCL-1 stood at 0.00187 µM; in the data set with SUDHL5 [3] (setting [7]), 9.83e-07 M; with SUDHL10 [4] (setting [8]), 1.44e-06 M; with OPM2 (Homo sapiens, OPM-2, 72 h), 1.24e-06 M; in the data set on A2780 (Homo sapiens, A2780, 72 h) it was 6.31e-06 M; with MV-4-11 (setting [9]) it was 3.57e-06 M. The IC50 with SUDHL5 [5] (setting [10]) came to 8.33e-07 M; in the data set with SUDHL10 [6] (setting [11]), 1.07e-06 M. Also, the EC50 in the data set with SUDHL5 [1] (Homo sapiens, SU-DHL-5, 3 h) was 0.579 µM; in the data set with SUDHL10 [2] (Homo sapiens, SU-DHL10, 3 h) it was 0.953 µM.

For the compound `Cn1nc(COc2ccc(N3CCN(S(=O)(=O)C4CC4)CC3)cc2)c2c1COCCCCn1c(C(=O)O)c(CCCOc3cccc4ccccc34)c3cccc-2c31` (racemic) [Example 1-11, (rac)-3-({4-[4-(cyclopropylsulfonyl)piperazin-1-yl]phenoxy}methyl)-1-methyl-7-[3-(naphthalen-1-yloxy)propyl]-110,11,12,13,15-hexahydropyrazolo[4′,3′:9,10][1,6]oxazacycloundecino[8,7,6-hi]indole-8-carboxylic Acid], the IC50 came out at 0.00175 µM at MCL-1; 7.61e-07 M with SUDHL5 [3] (setting [7]); 9.28e-07 M with SUDHL10 [4] (setting [8]); 1.51e-06 M in the data set with OPM2 (Homo sapiens, OPM-2, 72 h); 4.31e-06 M with A2780 (Homo sapiens, A2780, 72 h); 2.44e-06 M with MV-4-11 (setting [9]). The IC50 with SUDHL5 [5] (setting [10]) turned out to be 8.89e-07 M; in the data set on SUDHL10 [6] (setting [11]) it was 1.03e-06 M. The EC50 with SUDHL5 [1] (Homo sapiens, SU-DHL-5, 3 h) is 0.405 µM; in the data set with SUDHL10 [2] (Homo sapiens, SU-DHL10, 3 h) it was 0.652 µM.

With `COCC(=O)N1CCN(c2ccc(OCc3nn(C)c4c3-c3cccc5c(CCCOc6cccc7ccccc67)c(C(=O)O)n(c35)CCCCOC4)cc2)CC1` (single isomer, unassigned; enantiomer 2) [Example 1-29, 3-({4-[4-(methoxyacetyl)piperazin-1-yl]phenoxy}methyl)-1-methyl-7-[3-(naphthalen-1-yloxy)propyl]-1,10,11,12,13,15-hexahydropyrazolo[4′,3′:9,10][1,6]oxazacycloundecino[8,7,6-hi]indole-8-carboxylic Acid (Enantiomer 2)], the IC50 on MCL-1 was 0.00119 µM; in the data set on SUDHL5 [3] (setting [7]), 3.26e-06 M; in the data set on OPM2 it was 4.53e-06 M; in the data set on A2780, 2.38e-05 M; in the data set on MV-4-11 (setting [9]), 2.58e-06 M; in the data set on SUDHL5 [5] (setting [12]), 3.29e-06 M. Moreover, the IC50 in the data set with SUDHL10 [6] (setting [13]) came out at 6.87e-06 M. Besides, the EC50 in the data set on SUDHL5 [1] was found to be 2.64 µM; in the data set on SUDHL10 [2], 5.26 µM.

In the case of `CCc1c2c(nn1C)CN(C)CCCn1c(C(=O)O)c(CCCOc3cccc4ccccc34)c3cccc-2c31` (single isomer, unassigned; enantiomer 2) [Example 143, 11-ethyl-7,10-dimethyl-1-[3-(1-naphthyloxy)propyl]-4,5,6,7,8,10-hexahydropyrazolo[3′,4′:7,8][1,5]diazecino[9,10,1-hi]indole-2-carboxylic acid-N-ethylethanamine Salt (Enantiomer 2)], the IC50 was found to be 0.0308 µM on MCL-1; 1.44e-05 M in the data set on SUDHL5 [3] (72 h incubation); 2.02e-05 M with SUDHL10 [4] (72 h incubation); 1.21e-05 M in the data set with A2780; 1.2e-05 M in the data set on MV-4-11 (setting [9]); 1.36e-05 M in the data set on SUDHL5 [5] (setting [12]). In addition, the IC50 in the data set on SUDHL10 [6] (setting [13]) amounted to 2.69e-05 M. The EC50 in the data set with SUDHL5 [1] was 25 µM; in the data set on SUDHL10 [2], > 33 µM.

On to `CCc1c2c(nn1CCN1CCOCC1)COCCCCn1c(C(=O)O)c(CCCOc3cccc4ccccc34)c3cccc-2c31` (single isomer, unassigned; enantiomer 2) [Example 203, 3-ethyl-2-[2-(morpholin-4-yl)ethyl]-7-[3-(naphthalen-1-yloxy)propyl]-2,10,11,12,13,15-hexahydropyrazolo[4′,3′:9,10][1,6]oxazacycloundecino[8,7,6-hi]indole-8-carboxylic Acid (Enantiomer 2)], for which the IC50 against MCL-1 was 0.0021 µM; with SUDHL5 [3] (72 h incubation), 2.19e-06 M; in the data set on SUDHL10 [4] (72 h incubation) it was 1.78e-06 M; with A2780 it was 2.21e-05 M; in the data set with MV-4-11 (setting [9]), 2.8e-06 M; in the data set on SUDHL5 [5] (setting [12]), 1.32e-06 M. Also, the IC50 with SUDHL10 [6] (setting [13]) stood at 4.31e-06 M. Besides, the EC50 in the data set with SUDHL5 [1] was 1.61 µM; in the data set with SUDHL10 [2], 7.45 µM.

With `Cc1nn(C)c2c1-c1cccc3c(CCCOc4cccc5ccccc45)c(C(=O)O)n(c13)CCCCOC2` (single isomer, unassigned; enantiomer 2) [Example 318, (−)-1,3-dimethyl-7-[3-(naphthalen-1-yloxy)propyl]-1,10,11,12,13,15-hexahydropyrazolo[4′,3′:9,10][1,6]oxazacycloundecino[8,7,6-hi]indole-8-carboxylic Acid (Enantiomer 2)], the IC50 on MCL-1 is 0.0131 µM; in the data set with SUDHL5 [3] (72 h), 1.84e-05 M; with SUDHL10 [4] (72 h), 2.72e-05 M; in the data set with A2780, > 3.3e-05 M; in the data set on MV-4-11 (MV-4-11 cells), 3.28e-05 M; in the data set on SUDHL5 [5] (setting [14]), 1.62e-05 M. Moreover, the IC50 in the data set on SUDHL10 [6] (setting [15]) was > 3.3e-05 M. The EC50 in the data set with SUDHL5 [1] was 26.4 µM; in the data set with SUDHL10 [2], > 33 µM.

Regarding `Cn1nc(CN2CCCCC2)c2c1COCCCCn1c(C(=O)O)c(CCCOc3cccc4ccccc34)c3cccc-2c31` (single isomer, unassigned; enantiomer 2) [Example 334, 1-methyl-7-[3-(naphthalen-1-yloxy)propyl]-3-(piperidin-1-ylmethyl)-1,10,11,12,13,15-hexahydropyrazolo[4′3′:9,10][1,6]oxazacycloundecino[8,7,6-hi]indole-8-carboxylic Acid (Enantiomer 2)], the IC50 was 0.0917 µM at MCL-1; 1.68e-05 M in the data set on SUDHL5 [3] (72 h); 1.54e-05 M in the data set with SUDHL10 [4] (72 h); 2.87e-05 M in the data set on A2780; 1.47e-05 M with MV-4-11 (setting [9]); 1.85e-05 M with SUDHL5 [5] (setting [14]). Moreover, the IC50 in the data set with SUDHL10 [6] (setting [15]) turned out to be 2.67e-05 M. Also, the half-maximal effective concentration (EC50) with SUDHL5 [1] was 16.9 µM; in the data set on SUDHL10 [2], 25.7 µM.

On to `Cn1nc(CN2CC3(COC3)C2)c2c1COCCCCn1c(C(=O)O)c(CCCOc3cccc4ccccc34)c3cccc-2c31` (single isomer, unassigned; enantiomer 2) [Example 345, 1-methyl-7-[3-(naphthalen-1-yloxy)propyl]-3-(2-oxa-6-azaspiro[3.3]hept-6-ylmethyl)-1,10,11,12,13,15-hexahydropyrazolo[4′,3′:9,10][1,6]oxazacycloundecino[8,7,6-hi]indole-8-carboxylic acid-N-ethylethanamine Salt (Enantiomer 2)], for which the IC50 against MCL-1 worked out at 0.026 µM; in the data set with SUDHL5 [3] (72 h), 7.32e-06 M; in the data set on SUDHL10 [4] (72 h), 5.68e-06 M; in the data set with A2780 it was 1.59e-05 M; in the data set with MV-4-11 (Homo sapiens, MV4-11, MV-4-11 cells), 7.47e-06 M; in the data set on SUDHL5 [5] (setting [14]) it was 8.32e-06 M. For the same compound, in the data set with SUDHL10 [6] (setting [15]), the IC50 turned out to be 1.32e-05 M. Further, the EC50 in the data set with SUDHL5 [1] turned out to be 7.02 µM; in the data set on SUDHL10 [2], 12.8 µM.

One may read the EC50 as the concentration at which the effect is half-maximal.
